According to patent publication US9409961B2, “Cell penetrating peptides to target EIF4E” (Hoffmann-La Roche Inc., priority 2012, dated 2016):
Where two headings read alike, the source gives them in different places. Square brackets hold non-standard residues; d marks the D form. Peptide text beside a SMILES is read from it. tBuAla = CC(C)(C)C[C@H](N)C(=O)O; Nle = CCCC[C@H](N)C(=O)O

Biological target: T1, human eIF4E (Homo sapiens, UniProt P06730)
T1 construct: made in house
Assay: biochemical assay of peptide binding to human eIF4E (displacement of biotin labeled 4G2 peptide)
Method: A biochemical assay was run to test peptide binding to human eIF4E.
Human eIF4E (aa 28-217, SEQ ID NO: 87) with a C-terminal His tag (HH-eIF4E, SEQ ID NO: 88) was expressed in E. coli in inclusion bodies. The protein was solubilized with 8 M urea and purified under denaturing conditions using nickel-charged HisTrap HP columns (GE Healthcare). The protein was refolded by diluting to approximately 0.25 mg/mL with 6 M urea, 20 mM Hepes pH 7.0, 500 mM NaCl, 1 mM DTT, 1 mM EDTA, and 0.5 M arginine.HCl, and then dialyzing overnight into the same buffer without the urea. The protein was further dialyzed into 20 mM Hepes pH 6.5, 50 mM NaCl, 1 mM EDTA, and 1 mM DTT, filtered, and then concentrated using Hitrap SP sepharose FF columns (GE Healthcare). The protein was dialyzed into 20 mM Hepes pH 7.0, 500 mM NaCl, 5 mM DTT, and 10% glycerol and stored at −80° C. until use.
Test peptides (1.6 mM stock in DMSO) were diluted 3 fold in series in DMSO and solutions were diluted 4 fold in Assay Buffer (50 mM NaPi, pH 6.5, 50 mM KCl, 1 mM DTT, 0.004% NP40 and 0.5 mg/ml gammaglobulin). Six microliters per well of diluted peptide solutions and 12 microliters per well of 187.5 nM HH-eIF4E in Assay Buffer were added to 384-well polypropylene microplates (Matrix, Thermal Scientific). Twelve microliters per well of 187.5 nM biotin labeled 4G2 peptide (Ac-[…]Aha-Bio)-NH2 (SEQ ID NO: 91) 1:2 TFA) in Assay Buffer was added. The samples were incubated at room temperature for 20 minutes.
Six microliters per well of 4.8 nM Eu-streptavidin (Columbia Biosciences) and 48 nM Allophycocyanin-anti His antibody (Columbia Biosciences) in Assay Buffer (without DTT) were then added and the samples were incubated at room temperature for 30 min. Assay signals were monitored by reading emission fluorescence at 665 nm on an Envision Reader (PerkinElmer Life and Analytical Sciences). IC50 values were calculated using Condoseo software (Genedata AG, Basel, Switzerland).

[1] = IC50 (μM), Table 2a, cell penetrating peptides with the Y----LL-F and YWLLALFVY motifs
[2] = IC50 (μM), Table 3, cell-penetrating peptides without the Y----LL-F motif
[3] = IC50 (μM), Table 2, cell-penetrating peptides with the Y----LL-F motif
[4] = Table 1, peptides which bind eIF4E but are not cell-penetrating, read-out: IC50

T1 sequence (P06730 with tags, fused parts or gaps): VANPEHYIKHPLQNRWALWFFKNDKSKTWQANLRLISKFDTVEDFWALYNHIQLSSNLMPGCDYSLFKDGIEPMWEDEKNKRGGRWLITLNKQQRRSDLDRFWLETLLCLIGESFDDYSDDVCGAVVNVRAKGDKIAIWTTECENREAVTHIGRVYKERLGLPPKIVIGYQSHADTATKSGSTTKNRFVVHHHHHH

With CCCC[C@H](NC(=O)[C@H](CC(C)C)NC(=O)[C@H](CC(=O)O)NC(=O)[C@@H](NC(=O)[C@H](Cc1c[nH]c2ccccc12)NC(=O)[C@H](CCSC)NC(=O)[C@H](Cc1ccc(O)cc1)NC(=O)[C@@H](NC(=O)[C@H](Cc1ccccc1)NC(=O)[C@H](CC(C)C)NC(=O)[C@H](C)NC(=O)[C@H](CC(C)C)NC(=O)[C@H](CC(C)C)NC(=O)[C@H](Cc1c[nH]c2ccccc12)NC(=O)[C@H](Cc1ccc(O)cc1)NC(=O)[C@H](CCCCN)NC(=O)[C@H](CC(C)C)NC(=O)[C@H](CCCCN)NC(=O)[C@H](C)NC(=O)[C@H](CCSC)NC(C)=O)C(C)C)[C@@H](C)O)C(=O)N[C@@H](CC(C)C)C(=O)N[C@@H](Cc1ccccc1)C(=O)N[C@@H](CCCCN)C(=O)N[C@@H](CCCCN)C(=O)N[C@@H](CCCNC(=N)N)C(=O)N1CCC[C@H]1C(=O)N[C@@H](CCCCN)C(=O)N1CCC[C@H]1C(N)=O [SEQ ID NO: 29] (Ac-MAKLKYWLLALFVYMWTDL[Nle]LFKKRPKP-NH2) the IC50 [1] was 7.39 µM.

With “Ac-MANLAYWLLALFVYLWTDLRLFKKRPKP-NH2 [SEQ ID NO: 38]” the IC50 [1] was 3.04 µM.

In the case of “Ac-LAYWLLALFVAMWTDLRLFKKRPKP-NH2 [SEQ ID NO: 49]”, the IC50 [2] is reported as 1.99 µM.

“Ac-MYKSKILLWFLVLFVAMWSDVALAKKRPKP-NH2 [SEQ ID NO: 19]” gave an IC50 [3] of 7.21 µM.

For Ac-KQYDREFLLDFQFMPA-NH2 [SEQ ID NO: 52], the IC50 [4] was 10.5 µM.

“Ac-GAAEAAAYVYDLLLRFLRQRRRLRRERVRA-NH2 [SEQ ID NO: 25]” gave an IC50 (Table 2, cell-penetrating peptides with the Y----LL-F motif, read-out: IC50) of 11 µM.

With CCCC[C@H](NC(=O)[C@H](CC(C)C)NC(=O)[C@H](CO)NC(=O)[C@H](C)NC(=O)[C@@H](NC(=O)[C@H](CCCCN)NC(=O)[C@H](Cc1ccc(O)cc1)NC(=O)[C@H](CCCCN)NC(=O)[C@@H](NC(=O)[C@H](CCSC)NC(C)=O)C(C)C)[C@@H](C)CC)C(=O)N[C@@H](CC(C)C)C(=O)N[C@@H](Cc1ccccc1)C(=O)N[C@@H](CC(C)C)C(=O)N[C@@H](Cc1ccccc1)C(=O)N[C@H](C(=O)N[C@@H](C)C(=O)N[C@@H](CCSC)C(=O)N[C@@H](Cc1c[nH]c2ccccc12)C(=O)N[C@@H](CO)C(=O)N[C@@H](CC(=O)O)C(=O)N[C@H](C(=O)N[C@@H](C)C(=O)N[C@@H](CC(C)C)C(=O)N[C@@H](C)C(=O)N[C@@H](CCCCN)C(=O)N[C@@H](CCCCN)C(=O)N[C@@H](CCCNC(=N)N)C(=O)N1CCC[C@H]1C(=O)N[C@@H](CCCCN)C(=O)N1CCC[C@H]1C(N)=O)C(C)C)C(C)C [SEQ ID NO: 45] (Ac-MVKYKIASL[Nle]LFLFVAMWSDVALAKKRPKP-NH2) the IC50 [2] was 3.06 µM.

CCCC[C@H](NC(=O)[C@H](Cc1ccccc1)NC(=O)[C@H](CCC(N)=O)NC(=O)[C@H](Cc1ccccc1)NC(=O)[C@H](C)NC(=O)[C@H](CC(C)C)NC(=O)[C@H](CC(C)C)NC(=O)[C@H](Cc1ccccc1)NC(=O)[C@H](CCC(=O)O)NC(=O)[C@H](CCCNC(=N)N)NC(=O)[C@H](CC(=O)O)NC(=O)[C@H](Cc1ccc(O)cc1)NC(=O)[C@H](CCCNC(=N)N)NC(=O)[C@H](CCCCN)NC(C)=O)C(=O)N[C@H](C(=O)N[C@@H](Cc1ccc(O)cc1)C(=O)N[C@@H](CC(=O)O)C(=O)N[C@@H](CC(C)C)C(=O)NCC(=O)N[C@@H](CC(C)C)C(=O)N[C@@H](CCCNC(=N)N)C(=O)N[C@@H](CCCNC(=N)N)C(=O)N[C@@H](CC(C)C)C(=O)N[C@@H](CCCNC(=N)N)C(=O)N[C@@H](CCC(N)=O)C(=O)N[C@@H](CCCNC(=N)N)C(=O)N[C@@H](CCCNC(=N)N)C(=O)N[C@@H](CCCNC(=N)N)C(=O)N[C@@H](CC(C)C)C(=O)N[C@@H](CCCNC(=N)N)C(=O)N[C@@H](CCCNC(=N)N)C(N)=O)C(C)C [SEQ ID NO: 7] (Ac-KRYDREFLLAFQF[Nle]VYDLGLRRLRQRRRLRR-NH2) showed an IC50 (HH-eIF4E, biotin labeled 4G2 peptide, read-out: Binding affinities expressed as IC50) of 0.21 µM.

“Ac-MANLGYWLLALFVYMWTDLLLFKKRPKP-NH2 [SEQ ID NO: 16]” was tested, and the IC50 [3] was 3.03 µM.

“Ac-MVKSKYGSWILLLFVAMWSDVGLCKKRPKP-NH2 [SEQ ID NO: 13]” showed an IC50 [3] of 6.89 µM.

In the case of CSCC[C@H](NC(=O)[C@H](Cc1ccc(O)cc1)NC(=O)[C@@H](NC(=O)[C@H](Cc1ccccc1)NC(=O)[C@H](CC(C)C)NC(=O)[C@H](C)NC(=O)[C@H](CC(C)C)NC(=O)[C@H](CC(C)C)NC(=O)[C@H](Cc1c[nH]c2ccccc12)NC(=O)[C@H](Cc1ccc(O)cc1)NC(=O)[C@H](C)NC(=O)[C@H](CC(C)C)NC(C)=O)C(C)C)C(=O)N[C@@H](Cc1c[nH]c2ccccc12)C(=O)N[C@H](C(=O)N[C@@H](CC(=O)O)C(=O)N[C@@H](CC(C)C)C(=O)N[C@@H](CCCNC(=N)N)C(=O)N[C@@H](CC(C)C)C(=O)N[C@@H](CC(C)(C)C)C(=O)N[C@@H](CCCCN)C(=O)N[C@@H](CCCCN)C(=O)N[C@@H](CCCNC(=N)N)C(=O)N1CCC[C@H]1C(=O)N[C@@H](CCCCN)C(=O)N1CCC[C@H]1C(N)=O)[C@@H](C)O [SEQ ID NO: 32] (Ac-LAYWLLALFVYMWTDLRL[tBuAla]KKRPKP-NH2), the IC50 [1] is reported as 4.73 µM.

Compound “Ac-LAYWLLALFVYMWTDLRLFKKRPKP-NH2 [SEQ ID NO: 31]” has an IC50 [1] of 4.35 µM.

Compound CCCC[C@H](NC(=O)[C@H](Cc1ccccc1)NC(=O)[C@H](CCC(N)=O)NC(=O)[C@H](Cc1ccccc1)NC(=O)[C@H](C)NC(=O)[C@H](CC(C)C)NC(=O)[C@H](CC(C)C)NC(=O)[C@H](Cc1ccccc1)NC(=O)[C@H](CCC(=O)O)NC(=O)[C@H](CCCNC(=N)N)NC(=O)[C@H](CC(=O)O)NC(=O)[C@H](Cc1ccccc1)NC(=O)[C@H](CCCNC(=N)N)NC(=O)[C@H](CCCCN)NC(C)=O)C(N)=O [SEQ ID NO: 84] (Ac-KRFDREFLLAFQF[Nle]-NH2) has an IC50 [4] of 4.07 µM.

Compound “Ac-MVKYKIASLLLFLFVAMWSDVKLKKKRPKP-NH2 [SEQ ID NO: 18]” has an IC50 [3] of 6.71 µM.

For “Ac-MVKSKIYSWILLLFFAMWSDVALAKKRPKP-NH2 [SEQ ID NO: 20]”, the IC50 [3] was 9.96 µM.

Compound “Ac-MYKSKILLWFLVLFVAMWSDVGLCKKRPKP-NH2 [SEQ ID NO: 14]” has an IC50 [3] of 3.62 µM.

Work on “Ac-AYWLLALFVYMWTDLRLFKKRPKP-NH2 [SEQ ID NO: 36]” yielded an IC50 [1] of 2.53 µM.

“Ac-LLALFVYMWTDLRLFKKRPKP-NH2 [SEQ ID NO: 51]” gave an IC50 [2] of 3.75 µM.

CCCC[C@H](NC(=O)[C@H](CC(C)C)NC(=O)[C@H](CC(=O)O)NC(=O)[C@@H](NC(=O)[C@H](Cc1c[nH]c2ccccc12)NC(=O)[C@H](CCSC)NC(=O)[C@H](Cc1ccc(O)cc1)NC(=O)[C@@H](NC(=O)[C@H](Cc1ccccc1)NC(=O)[C@H](CC(C)C)NC(=O)[C@H](C)NC(=O)[C@H](CC(C)C)NC(=O)[C@H](CC(C)C)NC(=O)[C@H](Cc1c[nH]c2ccccc12)NC(=O)[C@H](Cc1ccc(O)cc1)NC(=O)[C@H](C)NC(=O)[C@H](CC(C)C)NC(=O)[C@H](C)NC(=O)[C@H](C)NC(=O)[C@H](CCSC)NC(C)=O)C(C)C)[C@@H](C)O)C(=O)N[C@@H](CC(C)C)C(=O)N[C@@H](Cc1ccccc1)C(=O)N[C@@H](CCCCN)C(=O)N[C@@H](CCCCN)C(=O)N[C@@H](CCCNC(=N)N)C(=O)N1CCC[C@H]1C(=O)N[C@@H](CCCCN)C(=O)N1CCC[C@H]1C(N)=O [SEQ ID NO: 28] (Ac-MAALAYWLLALFVYMWTDL[Nle]LFKKRPKP-NH2) showed an IC50 [1] of 4.59 µM.

“Ac-MVKYKIGSLLLFLFVAMWSDVGLCKKRPKP-NH2 [SEQ ID NO: 12]” showed an IC50 [3] of 4.13 µM.

Compound “Ac-MVKSKIYSWILLLFFAMWSDVKLKKKRPKP-NH2 [SEQ ID NO: 21]” has an IC50 [3] of 6.85 µM.

With “Ac-LAYWLLALFVYMWTDLRLAKKRPKP-NH2 [SEQ ID NO: 33]” the IC50 [1] was 6.24 µM.
